According to patent publication US20210187130A1, “PET RADIOPHARMACEUTICALS FOR NON-INVASIVE EVALUATION OF HIF-2alpha” (THE BOARD OF REGENTS OF THE UNIVERSITY OF TEXAS SYSTEM, priority 2019, published 2021):
“Also recorded” adds a separate entry of the source.

Tests used:
ccRCC = experiment: Phase 1 clinical trial in patients with ccRCC; assay type: in vivo
Text: The drug was remarkably well tolerated and a maximal tolerated dose (MTD) was not reached. […] The drug was also highly specific, and high-grade adverse effects were on-target, and expected, such as anemia (HIF-2 is known to regulate erythropoietin, and the effect could be overcome by exogenous erythropoietin administration). While the patient cohort evaluated had been extensively pretreated (typically ≥4 prior lines), activity of the inhibitor was still observed. Among 51 patients treated in the study at various dose levels, there was 1 complete response (CR), 6 partial response (PR), and 13 patients who remained on the study without progression beyond a year (FIG. 5). Overall, 42% of patients remained without progression for at least 4 months. […] Those data illustrated that even in highly pretreated RCC patients the HIF-2 Inhibitor was able to remain active.
The Phase I trial was accompanied by a companion study involving imaging and tissue acquisition.

ccRCC TGs = experiment: PT2399 in RCC tumorgraft (patient-derived xenograft) platform; assay type: in vivo, mice
Experimental: (§1) This compound was evaluated in over 250 mice implanted with RCCs from 22 patients. […] This was also observed clinically.
Tumor samples collected fresh from kidney cancer surgeries were implanted orthotopically (in the kidney) of immunocompromised mice (NOD/SCID) within 3 hours. The samples were implanted without disaggregation or any additives, and it was previously shown that these tumorgrafts retained the histology, gene expression, DNA copy number alterations, mutations, and treatment responsiveness of the patient tumors. This platform of human RCC tumorgraft models was used to validate HIF-2α as a target in ccRCC (FIGS. 1 and 2). […] This same platform was used to evaluate the uptake of [^11C]PT2385 by ccRCC tumorgrafts expressing HIF-2α by PET imaging.

[1] = Tolerance (body weight) of tumorgraft-bearing mice; assay type: in vivo; conditions: sunitinib at doses reproducing patient exposures
Experimental: as §1

[2] = among 51 patients, various dose levels

SMILES | complete response (CR), number of patients (ccRCC; [2]) | partial response (PR), number of patients (ccRCC; [2]) | patients remaining on study without progression beyond a year (ccRCC; [2]) | serious adverse effects requiring treatment discontinuation (ccRCC; any patient) | maximal tolerated dose (MTD) (ccRCC; dose escalation and dose expansion cohorts) | dose-limiting toxicities (ccRCC; human, in vivo) | high-grade adverse effects (on-target) (ccRCC; human, in vivo) | patients without progression for at least 4 months (ccRCC; overall) [%] | activity in HIF-2α deficient tumors (ccRCC; preliminary studies of patient tumor samples) | ccRCC tumorgrafts responsive (sensitive lines) (ccRCC TGs; RCCs from 22 patients, over 250 mice) | number of intermediate tumorgraft lines (ccRCC TGs; of all 22 tumorgraft lines) | number of resistant tumorgraft lines (ccRCC TGs; of all 22 tumorgraft lines) | number of sensitive tumorgraft lines (ccRCC TGs; of all 22 tumorgraft lines) | activity compared with sunitinib (ccRCC TGs; tumorgraft growth, sunitinib standard of care at the time) | body weight change of treated mice [1]
CS(=O)(=O)c1ccc(Oc2cc(F)cc(C#N)c2)c2c1[C@H](O)C(F)(F)C2 [PT2385] | 1 | 6 | 13 | no serious adverse effects requiring treatment discontinuation | not reached | no dose-limiting toxicities | anemia | 42 | no activity | – | – | – | – | – | –
N#Cc1cc(F)cc(Oc2ccc(S(=O)(=O)C(F)F)c3c2CC(F)(F)[C@H]3O)c1 [PT2399] | – | – | – | – | – | – | – | – | – | approximately 50% | 5 | 7 | 10 | more active than Sunitinib; also recorded: more effective than sunitinib | did not
CCN(CC)CCNC(=O)c1c(C)[nH]c(/C=C2\C(=O)Nc3ccc(F)cc32)c1C [sunitinib] | – | – | – | – | – | – | – | – | – | – | – | – | – | – | lost weight
